Experimental data: patent publication US6248718A, “Lesion-directed dry dosage forms of antibacterial agents for the treatment of acute mucosal infections of the oral cavity” (priority 1999, dated 2001)
“Also recorded” adds a separate entry of the source.

Columns and labels:
[1] = tested on: microbes in the exudate covering the canker ulcer; test: Congo red negative stain microscopy of canker ulcer exudate (Example VI); type: in vivo, human oral flora; details: penicillin G potassium 50 mg four times a day, about 48 hours
Procedure: Before the initiation of treatment, a small amount of exudate was scraped off the grayish-white covering of the ulcer with a toothpick and mixed with a drop of aqueous solution of Congo red for a negative stain smear. After the dried smear was exposed to concentrated hydrochloric acid vapor, the negative-stained microorganisms were examined microscopically.
On day 2, about 48 hours after the medication was initiated, the patients collected an early morning sample of saliva immediately after getting up and submitted it to the laboratory for culture. While in the laboratory, a second sample of the residual exudate covering the ulcer was taken from the patient for a post-treatment follow-up microscopy after Congo red negative staining.

[2] = Local concentration of penicillin in saliva after a troche containing 50 mg penicillin G; type: in vivo, human; details: 50 mg troche, end of one hour; 60 min
Procedure: The local concentration of penicillin in the saliva was determined as follows. […] This loculated pocket of saliva was not swallowed and was not to be diluted with excess saliva from other parts of the mouth for one hour. Two samples were taken for assay to determine the peak and trough local concentrations of penicillin during the one-hour duration of medicinal treatment. At the time when the troche was completely dissolved and one hour later, aliquots of 10 microliters were pipetted from this pocket of saliva solution at the site of medication, representing the peak level and the trough level of antibiotic concentration, and transferred into 10 ml of distilled water to make a 1:1.000 dilution and into 1 ml of distilled water to make a 1:100 dilution, respectively. The diluted saliva antibiotic solutions were passed through a sterile bacteria-filter to remove any bacterial or fungal contaminants of the oral flora.
For determination of the peak concentration, 1 ml of the bacteria-free filtrate was further diluted with 9 ml of nutrient broth to achieve a 1:10,000 dilution of the saliva. Then a serial two-fold dilution was made of this 1:10,000 diluted saliva sample with an equal volume of nutrient broth in a roll of test tubes to obtain a series of 1 ml aliquots of nutrient broth in which the saliva was diluted to 20,000, 40,000, 80,000, 160,000, 320,000, 640,000, 1,280,000 and 2,560,000 folds respectively. […] Thus the final dilutions of the saliva sample were in the range of 40,000 to 5,120,000 folds.
For determining the trough concentration, the entire 1 ml of the 1:100 diluted saliva filtrate was used to make the serial dilutions so that the final dilutions of saliva sample were in the range of 4,000 to 256,000 folds in the final test culture.
As control standards, a series of test tubes containing 1 ml of nutrient broth with varying concentrations of penicillin G potassium salt ranging from 0.1 units to 10 units/ml were similarly mixed with an equal volume of nutrient broth freshly inoculated with the standard tubes of Staphylococcus aureus. Both the test and control standard tubes were incubated at 37° C. for 18 hours. Among the test tubes showing no gross evidence of bacterial growth, the one containing the highest dilution of saliva and the one containing the least amount of penicillin G were considered as having the identical concentration of penicillin, i.e. the MIC of the staphylococcus aureus.

[3] = Concentrations of penicillin G potassium in saliva after oral ingestion (Example VIII); type: in vivo, human; details: for concentration in human saliva: 30-min intervals to 3 hours
Procedure: Eight healthy adults, four men and four women, volunteered for this study. Two men and two women were given 500 mg each, and two men and two women were given 250 mg of USP grade penicillin G potassium powder each by mouth, respectively. These two doses were chosen for the study because they have been used as the standard adult oral doses for systemic treatment of human bacterial infections.
In this study, the drug powder was suspended in one teaspoonful of water and swallowed by the test subjects two hours after breakfast, followed by drinking an 8 Oz. glass of water. The test subjects refrained from drinking or eating for the next three hours. Six samples of saliva were collected from each subject at 30-minute intervals in succession in the next three hours. An aliquot of 0.2 ml from each saliva sample was transferred to 3.8 ml of nutrient broth. The mixture of the latter was forced to pass a bacterial filter. Two (2) ml of the bacteria-free filtrate was pipetted out into a sterile test tube and inoculated with 0.1 ml of a 1:1,000 dilution of a 12 hours broth culture of Staphylococcus aureus ATCC 29213 and incubated at 37° C. for 18 hours. A series of test tubes containing known concentrations, from 6.2 mcg/ml to 0.16 mcg/ml, of penicillin G potassium in 2 ml of nutrient broth was also inoculated with the same broth culture as standards.
Since 0.75 mcg/ml is the consistent MIC observed in this laboratory for Staphylococcus aureus ATCC 29213, the penicillin concentration in the saliva-broth filtrate must have been at a level below 0.75 mcg/ml.

[4] = tested on: bacteria in human saliva; test: Inhibition of bacterial growth in human saliva in vitro (Example IV); type: cell-based; details: for bacterial growth from treated saliva: 1 h, aerobic blood agar
Procedure: For this study, five healthy adult volunteers, three men and two women, were asked to refrain from drinking and eating for two hours after breakfast. At the end of two hours, about five (5) ml of saliva was obtained from the oral cavity of each volunteer. Aliquots of 0.1 ml of saliva were pipetted immediately from each saliva sample and spread over the surface of two 5% sheep blood agar plates with a sterile plastic loop. One inoculated blood agar plate was incubated in an aerobic atmosphere containing 5% CO2, and the other anaerobically at 37° C. for 18 hours, as untreated controls.
Aliquots of 0.2 ml of the saliva from each volunteer's sample were pipetted into sterile test tubes, and labeled from No. 2 to No. 13. Five equal doses of dry powder of the USP grade penicillin G potassium salt, 200 mg each, were weighed and put into five sterile test tubes, all labeled No. 1. The dry powder of antibiotic was dissolved in 0.4 ml saliva obtained from each of the five volunteers to constitute an initial concentration of antibiotic concentration of […] in saliva. An aliquot of 0.2 ml of the saliva antibiotic solution was pipetted from tube No. 1 into tube No. 2. After having been thoroughly mixed, 0.2 ml of the content in tube No. 2 was pipetted to tube No. 3, and so forth continuously in succession to make a serial double dilution of penicillin G potassium solutions in saliva through tube No. 13. Finally, the test tubes contained different concentrations of penicillin G potassium in the saliva of five volunteers, as follows.
The mixtures of antibiotic and saliva in the test tubes were incubated at 37° C. One hour later, an aliquot of 0.1 ml was pipetted from the content of each tube, first dropped in the center of a blood agar plate and then spread to the periphery of the plate surface. The plates were incubated aerobically at 37° C. with 5% carbon dioxide in the atmosphere for 18 hours and were examined for bacterial growth.

For `CC1(C)S[C@@H]2[C@H](NC(=O)Cc3ccccc3)C(=O)N2[C@H]1C(=O)O` [penicillin G potassium], the “microbes in exudate after topical treatment” value [1] was “Only very rare cocci were found; also recorded: practically eliminated”, the “local trough concentration in saliva” value [2] was 7.5 to 15 mg/mL and the “concentration in human saliva” value ([3]; oral ingestion of 250 mg) was < 15 µg/mL. The “concentration in human saliva” value ([3]; oral ingestion of 500 mg) was < 15 µg/mL, the “bacterial growth in saliva-broth filtrate” value ([3]; oral ingestion of 250 or 500 mg, S. aureus ATCC 29213, 48 tubes) was “vigorous bacterial growth” and the “bacterial growth from treated saliva” value ([4]; 1 mg/ml) was “Scattered bacterial colonies began to appear; also recorded: the inhibition is not complete; also recorded: A few surviving or uninhibited bacteria grew into colonies”. The “bacterial growth from treated saliva” value ([4]; 2 mg/ml or above) was “No bacterial colonies were visible; also recorded: practically inhibits the growth of all of the salivary bacteria; also recorded: either destroyed or totally inhibited” and the MIC ([4]; Homo sapiens, read-out: concentration sufficient to kill or inhibit practically all salivary bacteria) was 1000 to 2000 mg/L.
